# Laboratory results from publication PMC8330742, “New benzothieno[2,3-c]pyridines as non-steroidal CYP17 inhibitors: design, synthesis, anticancer screening, apoptosis induction, and in silico ADME profile studies” (Journal of Enzyme Inhibition and Medicinal Chemistry, 2021).
# Legend:
# CCRF-CEM = assay: NCI-60 SRB screen; assay type: cell-based; conditions: Homo sapiens, single dose 10^−5 M, Leukaemia, read-out: Growth inhibition (%)
# HL-60(TB) = assay: NCI-60 SRB screen; assay type: cell-based, human; conditions: Homo sapiens; single dose 10^−5 M; HL-60(TB), Leukaemia; read-out: Growth inhibition (%)
# K-562 = assay: NCI-60 SRB screen; assay type: cell-based, human; conditions: Homo sapiens, K562; single dose 10^−5 M; K-562, Leukaemia; read-out: Growth inhibition (%)
# MOLT-4 = assay: NCI-60 SRB screen; assay type: cell-based; conditions: Homo sapiens; single dose 10^−5 M; MOLT-4, Leukaemia; read-out: Growth inhibition (%)
# SR = assay: NCI-60 SRB screen; assay type: cell-based; conditions: Homo sapiens, single dose 10^−5 M, Leukaemia, read-out: Growth inhibition (%)
# A549/ATCC = assay: NCI-60 SRB screen; assay type: cell-based, human; conditions: Homo sapiens, single dose 10^−5 M, Non-small cell lung carcinoma, read-out: Growth inhibition (%)
# EKVX = assay: NCI-60 SRB screen; assay type: cell-based, human; conditions: Homo sapiens, single dose 10^−5 M, Non-small cell lung carcinoma, read-out: Growth inhibition (%)
# HOP-62 = assay: NCI-60 SRB screen; assay type: cell-based, human; conditions: Homo sapiens; single dose 10^−5 M; HOP-62, Non-small cell lung carcinoma; read-out: Growth inhibition (%)
# HOP-92 = assay: NCI-60 SRB screen; assay type: cell-based, human; conditions: Homo sapiens; single dose 10^−5 M; HOP-92, Non-small cell lung carcinoma; read-out: Growth inhibition (%)
# NCI-H226 = assay: NCI-60 SRB screen; assay type: cell-based, human; conditions: Homo sapiens; single dose 10^−5 M; NCI-H226, Non-small cell lung carcinoma; read-out: Growth inhibition (%)
# NCI-H23 = assay: NCI-60 SRB screen; assay type: cell-based, human; conditions: Homo sapiens; single dose 10^−5 M; NCI-H23, Non-small cell lung carcinoma; read-out: Growth inhibition (%)
# NCI-H322M = assay: NCI-60 SRB screen; assay type: cell-based, human; conditions: Homo sapiens, single dose 10^−5 M, Non-small cell lung carcinoma, read-out: Growth inhibition (%)
# NCI-H460 = assay: NCI-60 SRB screen; assay type: cell-based, human; conditions: Homo sapiens; single dose 10^−5 M; NCI-H460, Non-small cell lung carcinoma; read-out: Growth inhibition (%)
# NCI-H522 = assay: NCI-60 SRB screen; assay type: cell-based, human; conditions: Homo sapiens; single dose 10^−5 M; NCI-H522, Non-small cell lung carcinoma; read-out: Growth inhibition (%)
# COLO 205 = assay: NCI-60 SRB screen; assay type: cell-based, human; conditions: Homo sapiens; single dose 10^−5 M; COLO 205, Colon cancer; read-out: Growth inhibition (%)
# HCC-2998 = assay: NCI-60 SRB screen; assay type: cell-based, human; conditions: Homo sapiens; single dose 10^−5 M; HCC-2998, Colon cancer; read-out: Growth inhibition (%)
# HCT-116 = assay: NCI-60 SRB screen; assay type: cell-based, human; conditions: Homo sapiens; single dose 10^−5 M; HCT-116, Colon cancer; read-out: Growth inhibition (%)
# HCT-15 = assay: NCI-60 SRB screen; assay type: cell-based, human; conditions: Homo sapiens; single dose 10^−5 M; HCT-15, Colon cancer; read-out: Growth inhibition (%)
# HT-29 = assay: NCI-60 SRB screen; assay type: cell-based; conditions: Homo sapiens; single dose 10^−5 M; HT-29, Colon cancer; read-out: Growth inhibition (%)
# KM12 = assay: NCI-60 SRB screen; assay type: cell-based, human; conditions: Homo sapiens; single dose 10^−5 M; KM12, Colon cancer; read-out: Growth inhibition (%)
# SW-620 = assay: NCI-60 SRB screen; assay type: cell-based; conditions: Homo sapiens; single dose 10^−5 M; SW-620, Colon cancer; read-out: Growth inhibition (%)
# SF-268 = assay: NCI-60 SRB screen; assay type: cell-based, human; conditions: Homo sapiens; single dose 10^−5 M; SF-268, CNS cancer; read-out: Growth inhibition (%)
# SF-295 = assay: NCI-60 SRB screen; assay type: cell-based, human; conditions: Homo sapiens; single dose 10^−5 M; SF-295, CNS cancer; read-out: Growth inhibition (%)
# LOX IMVI = assay: NCI-60 SRB screen; assay type: cell-based, human; conditions: Homo sapiens, single dose 10^−5 M, Melanoma, read-out: Growth inhibition (%)
# MALME-3M = assay: NCI-60 SRB screen; assay type: cell-based, human; conditions: Homo sapiens, single dose 10^−5 M, Melanoma, read-out: Growth inhibition (%)
# M14 = assay: NCI-60 SRB screen; assay type: cell-based, human; conditions: Homo sapiens; single dose 10^−5 M; M14, Melanoma; read-out: Growth inhibition (%)
# MDA-MB-435 = assay: NCI-60 SRB screen; assay type: cell-based; conditions: Homo sapiens, MDA-MB-435, read-out: Growth inhibition (%)
# SK-MEL-2 = assay: NCI-60 SRB screen; assay type: cell-based, human; conditions: Homo sapiens; single dose 10^−5 M; SK-MEL-2, Melanoma; read-out: Growth inhibition (%)
# SK-MEL-28 = assay: NCI-60 SRB screen; assay type: cell-based; conditions: Homo sapiens; single dose 10^−5 M; SK-MEL-28, Melanoma; read-out: Growth inhibition (%)
# SK-MEL-5 = assay: NCI-60 SRB screen; assay type: cell-based, human; conditions: Homo sapiens; single dose 10^−5 M; SK-MEL-5, Melanoma; read-out: Growth inhibition (%)
# UACC-257 = assay: NCI-60 SRB screen; assay type: cell-based, human; conditions: Homo sapiens; single dose 10^−5 M; UACC-257, Melanoma; read-out: Growth inhibition (%)
# UACC-62 = assay: NCI-60 SRB screen; assay type: cell-based, human; conditions: Homo sapiens; single dose 10^−5 M; UACC-62, Melanoma; read-out: Growth inhibition (%)
# IGROV1 = assay: NCI-60 SRB screen; assay type: cell-based, human; conditions: Homo sapiens, IGROV-1; single dose 10^−5 M; IGROV1, Ovarian cancer; read-out: Growth inhibition (%)
# OVCAR-3 = assay: NCI-60 SRB screen; assay type: cell-based, human; conditions: Homo sapiens; single dose 10^−5 M; OVCAR-3, Ovarian cancer; read-out: Growth inhibition (%)
# OVCAR-4 = assay: NCI-60 SRB screen; assay type: cell-based, human; conditions: Homo sapiens; single dose 10^−5 M; OVCAR-4, Ovarian cancer; read-out: Growth inhibition (%)
# OVCAR-8 = assay: NCI-60 SRB screen; assay type: cell-based, human; conditions: Homo sapiens; single dose 10^−5 M; OVCAR-8, Ovarian cancer; read-out: Growth inhibition (%)
# NCI/ADR-RES = assay: NCI-60 SRB screen; assay type: cell-based, human; conditions: Homo sapiens, single dose 10^−5 M, Ovarian cancer, read-out: Growth inhibition (%)
# 786-0 = assay: NCI-60 SRB screen; assay type: cell-based; conditions: Homo sapiens; single dose 10^−5 M; 786-0, Renal cancer; read-out: Growth inhibition (%)
# ACHN = assay: NCI-60 SRB screen; assay type: cell-based; conditions: Homo sapiens, single dose 10^−5 M, Renal cancer, read-out: Growth inhibition (%)
# CAKI-1 = assay: NCI-60 SRB screen; assay type: cell-based, human; conditions: Homo sapiens; single dose 10^−5 M; CAKI-1, Renal cancer; read-out: Growth inhibition (%)
# RXF 393 = assay: NCI-60 SRB screen; assay type: cell-based, human; conditions: Homo sapiens; single dose 10^−5 M; RXF 393, Renal cancer; read-out: Growth inhibition (%)
# SN12C = assay: NCI-60 SRB screen; assay type: cell-based, human; conditions: Homo sapiens, SN12C; single dose 10^−5 M; SN 12 C, Renal cancer; read-out: Growth inhibition (%)
# TK-10 = assay: NCI-60 SRB screen; assay type: cell-based, human; conditions: Homo sapiens; single dose 10^−5 M; TK-10, Renal cancer; read-out: Growth inhibition (%)
# UO-31 = assay: NCI-60 SRB screen; assay type: cell-based, human; conditions: Homo sapiens; single dose 10^−5 M; UO-31, Renal cancer; read-out: Growth inhibition (%)
# [1] = system: panel of 60 cancer cell lines; assay: NCI-60 SRB screen, mean or range over the panel; assay type: cell-based, human; conditions: Homo sapiens; mean over the cell lines; single dose 10^−5 M; read-out: Mean growth inhibition (%)
smiles,measurement,setting,value
"O=[N+]([O-])c1cccc(C2NC(N3CCOCC3)=C(Cl)c3c2sc2c(F)cccc32)c1 (stereo not drawn) [Compound 8b, 4-Chloro-3-(4-morpholino)-8-fluoro-1-(3-nitrophenyl)-1,2-dihydro [1]benzothieno[2,3-c]pyridine]",inhibition at 10 µM,CCRF-CEM,5%
same,inhibition at 10 µM,HL-60(TB),-10.1%
same,inhibition at 10 µM,K-562,18.6%
same,inhibition at 10 µM,MOLT-4,13.6%
same,inhibition at 10 µM,SR,20.4%
same,inhibition at 10 µM,A549/ATCC,-0.74%
same,inhibition at 10 µM,EKVX,14.3%
same,inhibition at 10 µM,HOP-62,16.1%
same,inhibition at 10 µM,HOP-92,22.2%
same,inhibition at 10 µM,NCI-H226,20.9%
same,inhibition at 10 µM,NCI-H23,5.35%
same,inhibition at 10 µM,NCI-H322M,0.04%
same,inhibition at 10 µM,NCI-H460,6.4%
same,inhibition at 10 µM,NCI-H522,17.3%
same,inhibition at 10 µM,COLO 205,-12.9%
same,inhibition at 10 µM,HCC-2998,-13.5%
same,inhibition at 10 µM,HCT-116,25.3%
same,inhibition at 10 µM,HCT-15,4.11%
same,inhibition at 10 µM,HT-29,0.78%
same,inhibition at 10 µM,KM12,6.99%
same,inhibition at 10 µM,SW-620,7.44%
same,inhibition at 10 µM,SF-268,7.66%
same,inhibition at 10 µM,SF-295,4.37%
same,inhibition at 10 µM,LOX IMVI,8.33%
same,inhibition at 10 µM,MALME-3M,-3.09%
same,inhibition at 10 µM,M14,7.49%
same,inhibition at 10 µM,MDA-MB-435,-2.51%
same,inhibition at 10 µM,SK-MEL-2,8.89%
same,inhibition at 10 µM,SK-MEL-28,-7.54%
same,inhibition at 10 µM,SK-MEL-5,-8.74%
same,inhibition at 10 µM,UACC-257,-3.74%
same,inhibition at 10 µM,UACC-62,17.5%
same,inhibition at 10 µM,IGROV1,16.2%
same,inhibition at 10 µM,OVCAR-3,2.72%
same,inhibition at 10 µM,OVCAR-4,13.5%
same,inhibition at 10 µM,OVCAR-8,1.71%
same,inhibition at 10 µM,NCI/ADR-RES,1.45%
same,inhibition at 10 µM,786-0,-6.62%
same,inhibition at 10 µM,ACHN,9.98%
same,inhibition at 10 µM,CAKI-1,32.5%
same,inhibition at 10 µM,RXF 393,11.9%
same,inhibition at 10 µM,SN12C,3.71%
same,inhibition at 10 µM,TK-10,-39.7%
same,inhibition at 10 µM,UO-31,38.6%
same,inhibition at 10 µM,[1],6.1%
